Experimental data as given in publication PMC11166409 (Transfusion Medicine and Hemotherapy, 2024).
Residues, ends and D or L forms follow the SMILES beside them.

Molecular target: HLA-A*02:01 (Homo sapiens, UniProt P04439, D140Y/D185E/D98H/E176V/E277Q/G131W/G231S/I119V/I121R/I166T/I218V/L300P/L318F/N151K/N90K/P208A/P217A/Q86G/Q94H/R138H/R169H/T345S)
Test: Competition-based peptide binding assay on EBV-LCL48 cells

Structure (SMILES)	IC50 [µM]
CC[C@H](C)[C@H](NC(=O)[C@@H](N)Cc1ccc(O)cc1)C(=O)N[C@@H](Cc1ccc(O)cc1)C(=O)N[C@@H](CC(N)=O)C(=O)N[C@@H](CCCNC(=N)N)C(=O)N[C@@H](CCC(=O)O)C(=O)N[C@@H](CCC(=O)O)C(=O)N[C@@H](Cc1ccccc1)C(=O)N[C@H](C(=O)O)C(C)C (H-YIYNREEFV-OH)	4.9
CC[C@H](C)[C@H](NC(=O)[C@@H](N)Cc1ccc(O)cc1)C(=O)N[C@@H](Cc1ccc(O)cc1)C(=O)N[C@@H](CC(N)=O)C(=O)N[C@@H](CCCNC(=N)N)C(=O)N[C@@H](CCC(=O)O)C(=O)N[C@@H](CCC(=O)O)C(=O)N[C@@H](CC(C)C)C(=O)N[C@H](C(=O)O)C(C)C (H-YIYNREELV-OH)	3.9
